In US7208515B2, “Diphenylmethyl compounds useful as muscarinic receptor antagonists” (Theravance, Inc., priority 2004, dated 2007):

Key:
[1] = target: T1, hM2 receptor (CHO-K1 cells) (Homo sapiens, UniProt P08172); experiment: Blockade of agonist-mediated inhibition of cAMP accumulation; format: cell-based; conditions: CHO-K1 cells expressing the hM2 receptor; read-out: Ki value for blockade of oxotremorine-inhibition of forskolin-mediated cAMP accumulation
T1 construct: expressed in transfected cells; host or cells: CHO-K1 cells
T1 sequence (P08172 1-466): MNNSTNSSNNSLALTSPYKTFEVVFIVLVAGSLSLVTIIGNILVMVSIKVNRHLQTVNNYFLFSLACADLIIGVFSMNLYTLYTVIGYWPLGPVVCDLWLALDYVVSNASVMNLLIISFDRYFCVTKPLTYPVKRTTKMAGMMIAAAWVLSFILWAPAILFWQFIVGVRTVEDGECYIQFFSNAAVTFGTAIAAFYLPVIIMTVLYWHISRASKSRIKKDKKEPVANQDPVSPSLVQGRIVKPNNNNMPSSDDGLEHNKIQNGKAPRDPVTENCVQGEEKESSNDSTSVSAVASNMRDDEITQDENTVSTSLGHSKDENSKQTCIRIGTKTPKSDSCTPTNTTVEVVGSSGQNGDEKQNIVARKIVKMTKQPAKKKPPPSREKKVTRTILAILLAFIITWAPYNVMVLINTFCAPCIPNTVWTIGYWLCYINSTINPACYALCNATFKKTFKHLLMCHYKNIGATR
Method: A. Blockade of Agonist-Mediated Inhibition of cAMP Accumulation
In this assay, the functional potency of a test compound was determined by measuring the ability of the test compound to block oxotremorine-inhibition of forskolin-mediated cAMP accumulation in CHO-K1 cells expressing the hM2 receptor.
cAMP assays were performed in a radioimmunoassay format using the Flashplate Adenylyl Cyclase Activation Assay System with ^125I-cAMP (NEN SMP004B, PerkinElmer Life Sciences Inc., Boston, Mass.), according to the manufacturer's instructions.
Cells were rinsed once with dPBS and lifted with Trypsin-EDTA solution (0.05% trypsin/0.53 mM EDTA) as described in the Cell Culture and Membrane Preparation section above. […] The cell pellet was then re-suspended in 10 mL dPBS, and the cells were counted with a Coulter Z1 Dual Particle Counter (Beckman Coulter, Fullerton, Calif.). […]
Reactions were incubated for 10 minutes at 37° C. and stopped by addition of 100 μL ice-cold detection buffer. Plates were sealed, incubated overnight at room temperature and counted the next morning on a PerkinElmer TopCount liquid scintillation counter (PerkinElmer Inc., Wellesley, Mass.). The amount of cAMP produced (pmol/well) was calculated based on the counts observed for the samples and cAMP standards, as described in the manufacturer's user manual. […]

[2] = system: pilocarpine-evoked salivation; experiment: Inhalation guinea pig salivation assay; format: in vivo
Method: Inhalation Guinea Pig Salivation Assay
Guinea pigs (Charles River, Wilmington, Mass.) weighing 200–350 g were acclimated to the in-house guinea pig colony for at least 3 days following arrival. Test compound or vehicle were dosed via inhalation (IH) over a 10 minute time period in a pie shaped dosing chamber (R&S Molds, San Carlos, Calif.). Test solutions were dissolved in sterile water and delivered using a nebulizer filled with 5.0 mL of dosing solution. Guinea pigs were restrained in the inhalation chamber for 30 minutes. During this time, guinea pigs were restricted to an area of approximately 110 sq. cm. […] Upon completion of nebulization, guinea pigs were evaluated at 1.5, 6, 12, 24, 48, or 72 hrs after treatment.
Guinea pigs were anesthetized one hour before testing with an intramuscular (IM) injection of a mixture of ketamine 43.75 mg/kg, xylazine 3.5 mg/kg, and acepromazine 1.05 mg/kg at an 0.88 mL/kg volume. […] Saliva was collected for 10 minutes, at which point the gauze pad was weighed and the difference in weight recorded to determine the amount of accumulated saliva (in mg). The mean amount of saliva collected for animals receiving the vehicle and each dose of test compound was calculated. […] Results were calculated using result means (n=3 or greater). Confidence intervals (95%) were calculated for each dose at each time point using two-way ANOVA. […]

Ki [1]: < 100 nM
Structure (SMILES): CNCC(=O)NCCCCCN1CC[C@@H](C(C(N)=O)(c2ccccc2)c2ccccc2)C1 [Example 1]
apparent lung selectivity index (ratio of anti-sialagogue ID50 to bronchoprotective ID50) [2]: greater than 5
